The values below come from publication PMC12198407, “Preclinical and first-in-human of purinostat mesylate, a novel selective HDAC I/IIb inhibitor, in relapsed/refractory multiple myeloma and lymphoma” (Signal Transduction and Targeted Therapy, 2025).

In one data set the target is HDAC6 (Homo sapiens, UniProt Q9UBN7). In words: HDAC enzyme activity in vitro. It is filed as biochemical.
A further data set deals with HDAC11 (Homo sapiens, UniProt Q96DB2). In words: HDAC enzyme activity in vitro. It is filed as biochemical.
Chain of HDAC11 (Q96DB2 whole entry): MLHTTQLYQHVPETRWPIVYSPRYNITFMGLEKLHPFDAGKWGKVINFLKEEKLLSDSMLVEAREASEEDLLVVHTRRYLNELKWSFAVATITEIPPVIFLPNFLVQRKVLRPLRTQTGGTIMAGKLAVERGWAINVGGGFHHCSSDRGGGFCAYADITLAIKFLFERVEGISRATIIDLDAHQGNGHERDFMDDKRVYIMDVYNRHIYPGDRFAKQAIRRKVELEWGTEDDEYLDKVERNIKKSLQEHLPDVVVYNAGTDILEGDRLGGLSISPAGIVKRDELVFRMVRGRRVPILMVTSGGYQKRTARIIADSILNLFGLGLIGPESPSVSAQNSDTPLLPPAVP
The subject of data set [1] is double-expressing lymphoma (DEL) PDX. Description: DEL PDX mouse model. As to conditions: 18 days; PM 5 mg/kg or 10 mg/kg. It is filed as in vivo, mice. How it is done:
All animal studies were performed in accordance with the guidelines approved by the Institutional Animal Care and Use Committee of Sichuan University, Chengdu, China. Six- to seven-week-old female NOD-SCID mice were purchased from Beijing Vital River Laboratory Animal Technology Co., Ltd. (China). Mice received subcutaneous inoculation with 0.5 × 10^7 MM1S or RPMI-8226 cells, to establish xenograft models. Heterotopic PDX models were generated as previously described.[54] When tumors reached 150–250 mm^3, mice were treated with various compounds. PM and panobinostat were administered intravenously three times a week at 5 mg/kg in combination therapy. […] Tumor volume (tumor volume (mm^3) = π/6 × length × width^2) and body weights were measured every two days. At the end, tumor tissues were weighed, and antitumor activity was evaluated by the tumor inhibition rate = (1 − tumor weight of treatment group/tumor weight of vehicle group) × 100%.

The next data set has as its system bone destruction. Description: Micro-CT of femur, 5TMM model. The class given is in vivo, C57BL/KawRij mice. As to conditions: 10 mg/kg for 4 weeks. How it is done:
The cMYC-KRAS12V-induced plasmacytoma mouse model in BALB/c (GemPharmatech Co., Ltd., Nanjing, China) was established as previously described.[33] On day 28 or 35 post bone marrow transplantation, recipients received various treatments. The 5TMM mouse model was established as previously described.[55] The 5TGM1-luc cells were intravenously injected into 6-week-old C57BL/KawRij mice (Harlan Co. Netherlands) with 2 × 10^6 cells per mouse. After three weeks, mice were treated with vehicle or PM 10 mg/kg. Serum Ca^2+ levels were monitored weekly for three weeks after the start of administration. Kaplan-Meier survival curves were generated for each treatment group. Additionally, the 5TMM mouse model studying PM’s effects on immune response and bone destruction involved randomizing mice into vehicle and PM (10 mg/kg) groups one week after inoculation. T cell subsets were analyzed by flow cytometry 24 h after a single dose and 1 month after vehicle or PM treatment. The mice were sacrificed after 1 month of treatment, and the bone destruction was detected by Micro-CT.

Data set [2] relates to human Burkitt lymphoma Raji. Description: Raji subcutaneous tumor model. The class given is in vivo, NOD/SCID mice. From the text: In contrast, both batches of the positive control CODOX group experienced instances of individual mortality during administration.
In the next data set the test system is mouse B-cell lymphoma. Description: Ighmyc transgenic B-cell lymphoma model, survival. The class given is in vivo, mice.
Data set [3] is described as follows: Acute toxicity test, intravenous. It is filed as in vivo, rats. On the procedure:
The experimental design included low, medium, and high doses of 50, 100, and 200 mg/kg administered intravenously. In the medium and high-dose groups, symptoms observed included ear reddening, reduced activity, prone posture, rapid breathing, and deep gasping; in the high-dose group, additional signs included deep gasping, arched back, and weight loss.

Data set [4] is described as follows: Safety pharmacology, CNS and respiratory. As to conditions: 30 and 90 mg/kg i.v. It is filed as in vivo, rats. How it is done: In the 1.2 and 3.6 mg/kg groups, transient increases in heart rate were observed, and in the 3.6 mg/kg group, a transient and reversible prolongation of QT interval (9.6%) was also noted. Additionally, there were no significant effects observed on other qualitative and quantitative ECG parameters or blood pressure in the dogs. […] In the 90 mg/kg group, reduced locomotor activity and decreased standing frequency were also observed, but these effects returned to baseline after 24 hours. No significant effects were noted on other neurological behaviors in rats, and no impacts on the respiratory system were observed.

A further data set deals with CHL cells. In words: In vitro chromosomal aberration test. It is filed as cell-based. The note with it: 30–1000 µg/mL 4 h ±S9; 3.75–30 µg/mL 24 h. On the procedure: This experiment employed two methods: one without the S9 metabolic activation system and one with the S9 metabolic activation system. The method without the S9 metabolic activation system utilized two exposure times of 4 hours and 24 hours, while the method with the S9 metabolic activation system used a 4-hour exposure time. The test was conducted using a 2% dosing volume ratio. Under the 4-hour exposure conditions, the final concentrations of Purinostat Mesylate were set at 30, 100, 300, and 1000 µg/mL; under the 24-hour exposure conditions, the final concentrations were set at 3.75, 7.5, 15, and 30 µg/mL. Additionally, a solvent control group (DMSO) and a positive control group (administering the appropriate positive agent) were included. After the culture period for each concentration group, cells were collected and prepared for microscopy. After Giemsa staining, 1000 cells were observed under a microscope to record the number of cells in the metaphase stage and calculate the mitotic index inhibition rate for each group. For chromosome aberration assessment, 200 metaphase cells were observed, and the chromosome aberration rate was calculated for each group.

Data set [5] has as its target T1, CYP1A2 (Homo sapiens, UniProt P05177).
T1 construct: human liver microsomal cytochrome P450 isoenzymes; from tissue; host or cells: human liver microsomes
Description: CYP inhibition, human liver microsomes. The class given is in vitro ADME.

Data set [6] has as its system CYP1A2. In words: CYP induction, cryopreserved human liver cells. As to conditions: 0.0500, 0.500, 5.00 µM; three donors. It is filed as in vitro ADME.
The nature of data set [7]: Body weight of MM1S xenograft, DEL and r/r DLBCL PDX mice. It is filed as in vivo. As to conditions: treatment groups of the mouse models.
Description: Mice received subcutaneous inoculation with 0.5 × 10^7 MM1S or RPMI-8226 cells, to establish xenograft models. […] When tumors reached 150–250 mm^3, mice were treated with various compounds. PM and panobinostat were administered intravenously three times a week at 5 mg/kg in combination therapy. […] Tumor volume (tumor volume (mm^3) = π/6 × length × width^2) and body weights were measured every two days.
Mice were weighed every two days. All data are represented as mean ± SEM.

T1 sequence (P05177 whole entry): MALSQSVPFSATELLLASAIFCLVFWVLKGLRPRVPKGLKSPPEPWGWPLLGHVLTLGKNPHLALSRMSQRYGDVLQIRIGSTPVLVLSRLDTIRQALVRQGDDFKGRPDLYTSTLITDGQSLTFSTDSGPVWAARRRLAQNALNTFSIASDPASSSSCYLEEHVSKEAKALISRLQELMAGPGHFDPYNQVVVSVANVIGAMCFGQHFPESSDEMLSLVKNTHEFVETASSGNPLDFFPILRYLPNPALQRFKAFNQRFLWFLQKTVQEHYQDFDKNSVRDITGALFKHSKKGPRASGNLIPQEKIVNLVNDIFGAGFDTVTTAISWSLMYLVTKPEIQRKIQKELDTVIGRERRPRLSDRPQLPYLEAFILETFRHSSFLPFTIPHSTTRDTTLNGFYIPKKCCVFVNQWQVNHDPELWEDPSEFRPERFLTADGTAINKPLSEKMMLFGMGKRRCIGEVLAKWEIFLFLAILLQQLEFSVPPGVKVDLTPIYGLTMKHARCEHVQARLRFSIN
Chain of HDAC6 (Q9UBN7 whole entry): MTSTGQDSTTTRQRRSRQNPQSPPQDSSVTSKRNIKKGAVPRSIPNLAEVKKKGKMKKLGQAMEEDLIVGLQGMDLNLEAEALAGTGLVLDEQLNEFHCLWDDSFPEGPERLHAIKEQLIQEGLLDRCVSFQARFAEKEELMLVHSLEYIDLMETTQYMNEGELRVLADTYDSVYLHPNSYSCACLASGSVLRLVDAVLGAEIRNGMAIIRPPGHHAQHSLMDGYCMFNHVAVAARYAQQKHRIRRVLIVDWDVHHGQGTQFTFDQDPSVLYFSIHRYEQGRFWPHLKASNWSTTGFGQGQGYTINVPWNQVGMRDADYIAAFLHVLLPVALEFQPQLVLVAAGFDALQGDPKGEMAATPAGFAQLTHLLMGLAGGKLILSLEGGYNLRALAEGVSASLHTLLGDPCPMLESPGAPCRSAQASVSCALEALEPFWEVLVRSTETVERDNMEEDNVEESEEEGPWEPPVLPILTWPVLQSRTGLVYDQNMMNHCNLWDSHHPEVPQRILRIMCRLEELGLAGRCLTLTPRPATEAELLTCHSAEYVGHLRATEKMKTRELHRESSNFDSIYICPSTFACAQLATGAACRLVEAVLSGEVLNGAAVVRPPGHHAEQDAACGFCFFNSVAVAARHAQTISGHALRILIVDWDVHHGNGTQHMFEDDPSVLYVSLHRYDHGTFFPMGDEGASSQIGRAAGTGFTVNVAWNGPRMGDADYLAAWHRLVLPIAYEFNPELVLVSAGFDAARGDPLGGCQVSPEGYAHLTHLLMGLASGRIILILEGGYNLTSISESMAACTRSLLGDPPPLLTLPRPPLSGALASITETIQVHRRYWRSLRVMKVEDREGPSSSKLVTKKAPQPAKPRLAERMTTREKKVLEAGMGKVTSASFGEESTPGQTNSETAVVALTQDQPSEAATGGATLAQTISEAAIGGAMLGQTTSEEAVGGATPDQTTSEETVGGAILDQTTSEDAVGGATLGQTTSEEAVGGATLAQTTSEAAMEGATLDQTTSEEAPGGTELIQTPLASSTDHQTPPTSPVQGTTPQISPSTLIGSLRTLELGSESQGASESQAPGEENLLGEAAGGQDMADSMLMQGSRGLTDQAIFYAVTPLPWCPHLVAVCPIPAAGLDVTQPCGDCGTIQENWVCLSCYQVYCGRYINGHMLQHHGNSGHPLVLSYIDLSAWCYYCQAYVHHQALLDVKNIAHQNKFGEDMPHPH

As for `CN(Cc1nc2c(N3CCOCC3)nc(-c3ccc(N)cc3)nc2n1C)c1ncc(C(=O)NO)cn1.CS(=O)(=O)O` [PM, 2-(((2-(4-Aminophenyl)-9-methyl-6-(4-morpholinyl)-9H-purine-8-yl)methyl)methylamino)-N-hydroxy-5-pyrimidine-carboxamide Mesylate], the half-maximal inhibitory concentration (IC50) was 0.0115 µM on HDAC6, 3.35 µM on HDAC11 and above 10 µM against CYP1A2 [5]. The complete remission entry in data set [1] is “all mice achieved complete remission”. The “bone structure of femur (Micro-CT)” value in the data set with bone destruction was “effectively prevented bone destruction and trabecular changes on the femoral surface”. For the same compound, the T/C was determined as 48.13±5.13% in [2] (1.25 mg/kg), 31.86±8.56% in data set [2] (2.5 mg/kg), 18.11±7.50% in data set [2] (5 mg/kg) and 7.75±5.02% in data set [2] (10 mg/kg). The tumor inhibition rate in [2] (1.25 mg/kg, mean of two batches) was 52.03 ± 3.36%; in data set [2] (2.5 mg/kg) it was 66.15 ± 12.49%; in [2] (5 mg/kg) it was 81.65 ± 8.67%; in [2] (10 mg/kg), 89.98 ± 8.01%. In addition, the median survival time in data set [2] (satellite group, 10 mg/kg) worked out at 39 days; in the data set with mouse B-cell lymphoma (2.5 mg/kg, solvent control 10.5 days) it was 19.5 days; in the data set on mouse B-cell lymphoma (5 mg/kg), 23 days; in the data set on mouse B-cell lymphoma (10 mg/kg) it was 22.5 days. Besides, in data set [3] (both sexes, rat, in vivo, iv, single i.v., read-out: maximum tolerated dose (MTD)), the maximal tolerated dose (MTD) turned out to be 100 mg/kg. In [3] (high dose 200 mg/kg, days 1 to 6), the mortality entry was “Six out of ten”. Further, in [4], the body temperature result was “a decrease in body temperature”. Moreover, the “chromosomal aberration test result” value with CHL cells is “negative”. Moreover, the “induction of CYP1A2” value in the data set on CYP1A2 [6] is listed as “did not act as an inducer”. Besides, in [7], the “body weight / side effects” value is listed as “no weight loss or other evident side effects”.
